Laboratory results as given in patent publication US20250304533A1, “THERAPEUTIC ALKALOID COMPOUNDS” (Sensorium Therapeutics, Inc., priority 2022, published 2025).
Like-named read-outs stand apart in the source and are kept apart here.

What was measured:
[1] = cited from earlier work
SERT = target: T1, SERT (Homo sapiens, UniProt P31645); experiment: SERT Inhibition Assay of Example A1 (Neurotransmitter Transporter fluorescence uptake, stable 5HTT cells); type: cell-based
T1 construct: expressed in transfected cells
Description: SERT inhibition was measured using a Neruotransmitter Transportation Fluorescence assay. Briefly, stable 5HTT cells were prepared in a 384 microwell plate. Compounds were prepared by in assay buffer (20 mM HEPES, 0.1% BSA). The compounds were added to the plated cells and incubated for 30 minutes at 37° C. 25 μL of dye solution (Molecular Devices Neurotransmitter Transporter Uptake Assay Kit) is added per well and incubated for 30 minutes at 37° C. The plates are then read on a plate reader.

PDE4A1A = target: T2, PDE4A1A (Homo sapiens, UniProt P27815); experiment: Recombinant PDE4 Inhibition Assay of Example A2; type: biochemical; details: recombinant enzyme
T2 construct: purchased BPSBioscience
Description: (§1) Recombinant PDE assay inhibition can be measured according to the BPSBioscience PDE4 assay kit, as described below.
(§2) 1) Dilute 20 µM FAM-Cyclic-3′,5′-AMP stock 100-fold with PDE buffer to make a 200 nM solution. Make only sufficient quantity needed for the assay; store remaining […] stock solution in aliquots at −20° C. 2) Add 25 μl of FAM-Cyclic-3′,5′-AMP (200 nM) to each well designated “Positive Control”, “Test Inhibitor”, and “Substrate Control”. 3) Add 20 μl of PDE assay buffer to each well designated “Substrate Control” and 45 μl of PDE assay buffer to each well designated “Blank”. 4) Add 5 μl of inhibitor solution to each well designated “Test Inhibitor”. For the wells labeled “Positive Control”, “Substrate Control” and “Blank”, add 5 μl of the same solution without inhibitor (inhibitor buffer). 5) Thaw PDE on ice. Upon first thaw, briefly spin tube containing enzyme to recover the full contents of the tube. 6) Dilute PDE4 in PDE buffer to 7.5 pg/μl (0.15 ng/reaction)*. Initiate reaction by adding 20 μl of PDE4 (7.5 pg/μl) to the wells designated “Positive Control” and “Test Inhibitor.” 7) Incubate at room temperature for 1 hour.
(§3) 1) Mix binding agent thoroughly and dilute binding agent 1:100 with binding agent diluent. 2) Add 100 μl diluted binding agent to each microwell. Incubate at room temperature for 1 hour with slow shaking. 3) Read the fluorescent polarization of the sample in a microtiter-plate reader equipped for the measurement of fluorescence polarization, capable of excitation at wavelengths ranging from 485±5 nm and detection of emitted light ranging from 528±10 nm. Blank value is subtracted from all other values.

PDE4B2 = target: T3, PDE4B2 (Homo sapiens, UniProt Q07343); experiment: Recombinant PDE4 Inhibition Assay of Example A2; type: biochemical; details: recombinant enzyme
T3 construct: purchased BPSBioscience
Description: as §1, §2, §3

PDE4C1 = target: T4, PDE4C1 (Homo sapiens, UniProt Q08493); experiment: Recombinant PDE4 Inhibition Assay of Example A2; type: biochemical; details: recombinant enzyme
T4 construct: purchased BPSBioscience
Description: as §1, §2, §3

PDE4D2 = target: T5, PDE4D2 (Homo sapiens, UniProt Q08499); experiment: Recombinant PDE4 Inhibition Assay of Example A2; type: biochemical; details: recombinant enzyme
T5 construct: purchased BPSBioscience
Description: as §1, §2, §3

[2] = target: 5-HT transporter (“SERT”) (Homo sapiens, UniProt P31645); details: Hill coefficient of binding curve, Harvey et al., 2011; cited from earlier work
[3] = class symbols, read-out: SERT IC50

T2 sequence (P27815 1-647 isoform P27815-4): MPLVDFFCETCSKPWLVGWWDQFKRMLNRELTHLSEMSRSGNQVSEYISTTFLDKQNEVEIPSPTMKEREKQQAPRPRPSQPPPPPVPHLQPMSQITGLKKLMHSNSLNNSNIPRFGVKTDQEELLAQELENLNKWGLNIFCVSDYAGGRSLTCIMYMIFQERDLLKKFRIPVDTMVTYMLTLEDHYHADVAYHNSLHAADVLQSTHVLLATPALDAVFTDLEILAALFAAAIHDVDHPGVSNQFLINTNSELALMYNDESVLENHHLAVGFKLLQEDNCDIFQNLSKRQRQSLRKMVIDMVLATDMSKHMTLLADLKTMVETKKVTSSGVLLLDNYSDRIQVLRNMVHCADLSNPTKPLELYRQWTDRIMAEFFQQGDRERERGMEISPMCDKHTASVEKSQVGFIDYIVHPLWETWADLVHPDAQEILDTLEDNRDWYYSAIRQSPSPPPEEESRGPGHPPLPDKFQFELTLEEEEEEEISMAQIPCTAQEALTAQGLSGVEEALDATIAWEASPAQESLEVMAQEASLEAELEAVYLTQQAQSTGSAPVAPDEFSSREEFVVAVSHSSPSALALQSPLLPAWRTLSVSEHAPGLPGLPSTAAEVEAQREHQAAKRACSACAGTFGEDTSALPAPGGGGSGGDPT
T1 sequence (P31645 whole entry, species assumed): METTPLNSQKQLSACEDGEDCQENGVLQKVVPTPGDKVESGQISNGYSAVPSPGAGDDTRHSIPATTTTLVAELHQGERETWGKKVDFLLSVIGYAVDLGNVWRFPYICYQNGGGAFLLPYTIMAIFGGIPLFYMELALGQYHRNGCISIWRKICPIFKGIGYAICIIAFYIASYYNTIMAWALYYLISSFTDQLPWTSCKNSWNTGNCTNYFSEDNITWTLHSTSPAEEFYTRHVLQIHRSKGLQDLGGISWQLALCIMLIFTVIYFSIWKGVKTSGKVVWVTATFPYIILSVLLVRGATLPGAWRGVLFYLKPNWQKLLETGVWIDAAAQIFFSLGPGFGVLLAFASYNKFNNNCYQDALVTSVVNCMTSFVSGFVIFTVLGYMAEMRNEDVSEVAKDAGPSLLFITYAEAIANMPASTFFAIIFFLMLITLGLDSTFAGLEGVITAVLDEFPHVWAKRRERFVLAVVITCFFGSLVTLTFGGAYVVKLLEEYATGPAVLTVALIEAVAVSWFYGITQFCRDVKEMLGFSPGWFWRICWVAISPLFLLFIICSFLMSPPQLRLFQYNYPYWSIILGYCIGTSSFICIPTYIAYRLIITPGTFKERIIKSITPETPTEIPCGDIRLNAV
T3 sequence (Q07343 1-564 isoform Q07343-2): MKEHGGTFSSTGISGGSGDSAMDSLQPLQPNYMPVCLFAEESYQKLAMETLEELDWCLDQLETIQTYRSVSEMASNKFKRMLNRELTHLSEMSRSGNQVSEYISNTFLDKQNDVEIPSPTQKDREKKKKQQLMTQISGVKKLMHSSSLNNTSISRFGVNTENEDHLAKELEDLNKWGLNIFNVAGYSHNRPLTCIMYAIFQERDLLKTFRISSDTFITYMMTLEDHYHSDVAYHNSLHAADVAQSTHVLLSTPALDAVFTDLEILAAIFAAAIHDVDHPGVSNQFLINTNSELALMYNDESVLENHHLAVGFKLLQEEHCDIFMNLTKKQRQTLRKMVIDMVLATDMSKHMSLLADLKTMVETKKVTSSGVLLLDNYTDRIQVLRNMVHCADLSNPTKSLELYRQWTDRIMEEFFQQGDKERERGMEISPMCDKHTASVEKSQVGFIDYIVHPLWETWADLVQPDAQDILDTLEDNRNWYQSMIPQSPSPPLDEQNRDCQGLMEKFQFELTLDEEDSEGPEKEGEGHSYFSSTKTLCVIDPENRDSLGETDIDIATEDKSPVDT
T5 sequence (Q08499 303-809): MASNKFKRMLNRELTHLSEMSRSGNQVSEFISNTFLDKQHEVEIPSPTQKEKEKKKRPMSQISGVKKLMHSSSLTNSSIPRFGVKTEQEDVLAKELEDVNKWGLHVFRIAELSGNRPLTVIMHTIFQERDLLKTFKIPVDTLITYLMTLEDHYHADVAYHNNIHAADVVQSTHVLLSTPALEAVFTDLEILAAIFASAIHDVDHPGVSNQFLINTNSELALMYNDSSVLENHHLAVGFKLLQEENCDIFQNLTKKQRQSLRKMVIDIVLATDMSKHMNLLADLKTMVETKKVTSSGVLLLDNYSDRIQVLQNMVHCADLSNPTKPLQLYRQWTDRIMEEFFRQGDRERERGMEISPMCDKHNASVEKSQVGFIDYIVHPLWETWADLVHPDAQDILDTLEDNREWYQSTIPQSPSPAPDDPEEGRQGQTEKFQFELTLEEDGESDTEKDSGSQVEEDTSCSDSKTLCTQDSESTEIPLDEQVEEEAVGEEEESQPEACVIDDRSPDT
T4 sequence (Q08493 whole entry): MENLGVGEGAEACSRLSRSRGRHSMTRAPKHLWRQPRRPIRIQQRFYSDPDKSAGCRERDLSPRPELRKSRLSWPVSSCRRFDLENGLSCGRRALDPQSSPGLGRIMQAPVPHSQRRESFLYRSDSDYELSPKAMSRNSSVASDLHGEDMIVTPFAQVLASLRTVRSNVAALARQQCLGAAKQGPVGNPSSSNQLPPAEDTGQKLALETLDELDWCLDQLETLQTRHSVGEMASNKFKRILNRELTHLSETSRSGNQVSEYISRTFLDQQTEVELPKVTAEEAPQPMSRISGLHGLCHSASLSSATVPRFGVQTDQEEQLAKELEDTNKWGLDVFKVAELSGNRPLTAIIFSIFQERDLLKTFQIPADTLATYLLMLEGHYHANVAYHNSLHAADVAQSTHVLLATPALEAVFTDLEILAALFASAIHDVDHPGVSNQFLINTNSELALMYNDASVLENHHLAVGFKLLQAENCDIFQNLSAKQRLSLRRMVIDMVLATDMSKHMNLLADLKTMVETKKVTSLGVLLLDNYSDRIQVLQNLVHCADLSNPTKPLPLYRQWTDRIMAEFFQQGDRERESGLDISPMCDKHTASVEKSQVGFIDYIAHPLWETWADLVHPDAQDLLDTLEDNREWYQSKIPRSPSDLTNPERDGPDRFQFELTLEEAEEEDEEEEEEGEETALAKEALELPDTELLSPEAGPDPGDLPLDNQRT
Chain of 5-HT transporter (“SERT”) (P31645 whole entry, species assumed): as the sequence (P31645 whole entry, species assumed) above

In the case of `COc1ccc([C@@]23CCC(=O)C[C@@H]2N(C)CC3)cc1OC` [(−) mesembrine], the half-life in plasma [1] is listed as “less than 2 hours”.

In the case of `COc1cc([C@@]23C=CC(=O)CC2N(C)CC3)cc(Br)c1OC` (stereo partly drawn) [Compound 130, (3aR)-3a-(3-bromo-4,5-dimethoxy-phenyl)-1-methyl-2,3,7,7a-tetrahydroindol-6-one], the IC50 (SERT; [3]) is reported as 0.5 to 1 µM, the IC50 (SERT; read-out: SERT inhibition IC50) is reported as less than 1 µM and the IC50 (PDE4A1A) is reported as greater than 10 µM. The IC50 (PDE4B2) was greater than 10 µM, the IC50 (PDE4C1) was greater than 10 µM and the IC50 (PDE4D2) was greater than 10 µM.

In the case of `COc1cc([C@@]23C=CC(=O)C[C@@H]2N(C)CC3)cc(I)c1OC` [Compound 132, (3aR,7aS)-3a-(3-iodo-4,5-dimethoxy-phenyl)-1-methyl-2,3,7,7a-tetrahydroindol-6-one], the IC50 (SERT; [3]) is reported as 0.1 to 0.5 µM, the IC50 (SERT; read-out: SERT inhibition IC50) is reported as less than 1 µM and the IC50 (PDE4A1A) is reported as greater than 10 µM. The IC50 (PDE4B2) was greater than 10 µM, the IC50 (PDE4C1) was greater than 10 µM and the IC50 (PDE4D2) was greater than 10 µM.

With `COc1cc([C@@]23C=CC(=O)C[C@@H]2N(C)CC3)cc(F)c1OC` [Compound 133, (3aR,7aS)-3a-(3-fluoro-4,5-dimethoxy-phenyl)-1-methyl-2,3,7,7a-tetrahydroindol-6-one] the IC50 (SERT; [3]) was 0.1 to 0.5 µM, the IC50 (SERT; read-out: SERT inhibition IC50) was less than 1 µM and the IC50 (PDE4A1A) was 1 to 10 µM. It also gave an IC50 (PDE4B2) of 1 to 10 µM, an IC50 (PDE4C1) greater than 10 µM and an IC50 (PDE4D2) greater than 10 µM.

`COc1cc(C23C=CC(=O)CC2N(C)CC3)cc(OC)c1OC` (centres unmarked) [Compound 144, 1-methyl-3a-(3,4,5-trimethoxyphenyl)-2,3,7,7a-tetrahydroindol-6-one] gave an IC50 (SERT; [3]) greater than 1 µM, an IC50 (SERT; read-out: SERT inhibition IC50) greater than 1 µM and an IC50 (PDE4A1A) greater than 10 µM. It also gave an IC50 (PDE4B2) greater than 10 µM, an IC50 (PDE4C1) greater than 10 µM and an IC50 (PDE4D2) greater than 10 µM.

For `COc1ccc([C@@]23C=CC(=O)C[C@@H]2N(C)CC3)cc1OC` [Mesembrenone], the “5-HT transporter (“SERT”) nH” value [2] is given as 1.0.
